The text below walks through data of PMC8398255, “Synthesis of 3,5-Bis(trifluoromethyl)phenyl-Substituted Pyrazole Derivatives as Potent Growth Inhibitors of Drug-Resistant Bacteria” (Molecules, 2021).

≈ marks a conversion by molar mass, not a printed value. Bounds are passed on as bounds.

One experiment has as its system S. aureus strains. Nature of the experiment: MIC against S. aureus strains. Conditions: for times more effective than vancomycin and daptomycin: against S. aureus strains. Format: cell-based, Staphylococcus aureus. How it is done: (§1) Compounds were dissolved in dimethyl sulfoxide (DMSO) to achieve a starting concentration of 32 µg/mL as described by us previously. Compounds were further diluted two-fold across the 96-well honeycomb plate columns in cation adjusted Mueller Hinton broth (CAMHB), and bacterial culture was added. Plates were incubated for 18–20 h at 35 ℃ before determining the minimum concentrations at which wells had no visible turbidity to the naked eye. The MIC values were determined from at least a duplicate result obtained from three independent experiments using fresh bacterial cultures on different days.

For a further experiment, the system named is Gram-positive bacteria. Nature of the experiment: MIC across the tested strains. Conditions: for MIC: across the tested strains. Format: cell-based. Here is the method:
as §1

In experiment [1] the test system is S. aureus BAA-2312 (Sa12). Nature of the experiment: MIC, microdilution (CLSI). Conditions: Staphylococcus aureus, BAA2312; Sa12, methicillin-resistant S. aureus BAA-2312; n = 3; read-out: MIC. Format: cell-based. How it is done: as §1
On the technique in general: Dilution methods test growth across graded concentrations, often in twofold steps.

Experiment [2] concerns S. aureus ATCC 33592 (Sa92). The experiment is described as follows: MIC, microdilution (CLSI). Format: cell-based. Conditions: Staphylococcus aureus, ATCC33592; Sa92, methicillin-resistant S. aureus ATCC 33592; n = 3; read-out: MIC. Here is the method: as §1
Experiment [3] deals with E. faecalis ATCC 29212 (Ef12). Nature of the experiment: MIC, microdilution (CLSI). Conditions: Enterococcus faecalis, ATCC29212; Ef12, antibiotic susceptible E. faecalis ATCC 29212; n = 3; read-out: MIC. Format: cell-based. How it is done: as §1
Experiment [4] relates to E. faecalis ATCC 51299 (Ef99). The experiment is described as follows: MIC, microdilution (CLSI). Format: cell-based. Conditions: Enterococcus faecalis, ATCC 51299 / VRE; Ef99, vancomycin-resistant (VRE) E. faecalis ATCC 51299; n = 3; read-out: MIC. Here is the method: as §1
The subject of experiment [5] is E. faecium ATCC 700221 (Ef21). Nature of the experiment: MIC, microdilution (CLSI). Conditions: Enterococcus faecium, ATCC 700221 / VRE; Ef21, vancomycin-resistant (VRE) E. faecium ATCC 700221; n = 3; read-out: MIC. In kind it is cell-based. Here is the method: as §1
The subject of experiment [6] is S. aureus ATCC 700699 (Sa99). Nature of the experiment: MIC, microdilution (CLSI). Conditions: Staphylococcus aureus, ATCC700699; Sa99, methicillin-resistant S. aureus ATCC 700699; n = 3; read-out: MIC. In kind it is cell-based. Here is the method: as §1
The subject of experiment [7] is S. aureus ATCC 25923 (Sa23). The experiment is described as follows: MIC, microdilution (CLSI). In kind it is cell-based. Conditions: Staphylococcus aureus, ATCC25923; Sa23, antibiotic susceptible S. aureus ATCC 25923; n = 3; read-out: MIC. Here is the method: as §1
The subject of experiment [8] is Bacillus subtilis ATCC 6623 (Bs). Nature of the experiment: MIC, microdilution (CLSI). Format: cell-based. Conditions: ATCC6623; Bs, Bacillus subtilis ATCC 6623; n = 3; read-out: MIC. Here is the method: as §1
The subject of experiment [9] is S. epidermidis ATCC 700296 (Se). Nature of the experiment: MIC, microdilution (CLSI). Format: cell-based. Conditions: Staphylococcus epidermidis, ATCC700296; Se, S. epidermidis ATCC 700296; n = 3; read-out: MIC. How it is done:
as §1

Experiment [10] concerns S. aureus ATCC 33591 (Sa91). Nature of the experiment: MIC, microdilution (CLSI). Conditions: Staphylococcus aureus, ATCC33591; Sa91, methicillin-resistant S. aureus ATCC 33591; n = 3; read-out: MIC. Format: cell-based. Here is the method: as §1

For orientation: MIC means the lowest concentration that inhibits growth of the organism. In the case of `O=C(O)c1ccc(-n2cc(CNc3cc(Cl)c(F)cc3F)c(-c3cc(C(F)(F)F)cc(C(F)(F)F)c3)n2)cc1` [Compound 26, 4-[3-[3,5-Bis(trifluoromethyl)phenyl]-4-[(5-chloro-2,4-difluoro-anilino)methyl]pyraz-ol-1-yl] benzoic acid], the “times more effective than vancomycin and daptomycin” value in the experiment with S. aureus strains is “up to 4 times”. For the same compound, the minimum inhibitory concentration (MIC) in the experiment with Gram-positive bacteria was no less than 0.25 µg/mL; in experiment [1], 0.25 µg/mL (≈ 0.434 µM); in [2] it was 1 µg/mL (≈ 1.74 µM); in experiment [3], 1 µg/mL (≈ 1.74 µM); in [4], 2 µg/mL (≈ 3.47 µM); in experiment [5], 0.25 µg/mL (≈ 0.434 µM). The minimal inhibitory concentration (MIC) was 1 µg/mL (≈ 1.74 µM) in [6]; 2 µg/mL (≈ 3.47 µM) in [7]; 0.25 µg/mL (≈ 0.434 µM) in experiment [8]; 4 µg/mL (≈ 6.95 µM) in experiment [9]; 2 µg/mL (≈ 3.47 µM) in experiment [10].
Consider `CC(C)c1ccc(NCc2cn(-c3ccc(C(=O)O)cc3)nc2-c2cc(C(F)(F)F)cc(C(F)(F)F)c2)cc1` [Compound 2, 4-[3-[3,5-Bis(trifluoromethyl)phenyl]-4-[(4-isopropylanilino)methyl]pyrazol-1-yl] benzoic acid], for which the minimal inhibitory concentration (MIC) against S. aureus strains (Staphylococcus aureus, S. aureus strains, including MRSA) was 1 to 2 µg/mL (≈ 1.83 to 3.65 µM); in experiment [1], 1 µg/mL (≈ 1.83 µM); in experiment [2], 1 µg/mL (≈ 1.83 µM); in experiment [3], 2 µg/mL (≈ 3.65 µM); in experiment [4] it was 1 µg/mL (≈ 1.83 µM); in [5], 1 µg/mL (≈ 1.83 µM). Besides, the MIC in [6] amounted to 2 µg/mL (≈ 3.65 µM); in experiment [7], 2 µg/mL (≈ 3.65 µM); in experiment [8], 1 µg/mL (≈ 1.83 µM); in experiment [9], 2 µg/mL (≈ 3.65 µM); in experiment [10] it was 1 µg/mL (≈ 1.83 µM).
On to `O=C(O)c1ccc(NCc2cn(-c3ccc(C(=O)O)cc3)nc2-c2cc(C(F)(F)F)cc(C(F)(F)F)c2)cc1` [Compound 13, 4-[[3-[3,5-Bis(trifluoromethyl)phenyl]-1-(4-carboxyphenyl)pyrazol-4-yl]methylamino] benzoic acid], for which, in the experiment on Gram-positive bacteria (tested bacteria), the “antibacterial activity” value is “eliminated the activity”. Besides, the MIC was 32 µg/mL (≈ 58.2 µM) in experiment [1]; greater than 32 µg/mL in experiment [2]; greater than 32 µg/mL in experiment [3]; greater than 32 µg/mL in experiment [4]; greater than 32 µg/mL in [5]; greater than 32 µg/mL in experiment [6]. Further, the minimum inhibitory concentration (MIC) in experiment [7], in experiment [8], in [9] and in experiment [10] was greater than 32 µg/mL throughout.
For `Cc1cc(NCc2cn(-c3ccc(C(=O)O)cc3)nc2-c2cc(C(F)(F)F)cc(C(F)(F)F)c2)ccc1F` [Compound 14, 4-[3-[3,5-Bis(trifluoromethyl)phenyl]-4-[(4-fluoro-3-methyl-anilino)methyl]pyrazol-1-yl] benzoic acid], the MIC against Gram-positive bacteria was no less than 1 µg/mL; in experiment [1] it was 1 µg/mL (≈ 1.86 µM); in experiment [2], 1 µg/mL (≈ 1.86 µM); in experiment [3], 2 µg/mL (≈ 3.72 µM); in [4], 2 µg/mL (≈ 3.72 µM); in experiment [5], 1 µg/mL (≈ 1.86 µM). The minimum inhibitory concentration (MIC) in experiment [6] was 2 µg/mL (≈ 3.72 µM); in [7], 2 µg/mL (≈ 3.72 µM); in [8] it was 1 µg/mL (≈ 1.86 µM); in [9], 4 µg/mL (≈ 7.44 µM); in [10] it was 2 µg/mL (≈ 3.72 µM).
As to `O=C(O)c1ccc(-n2cc(CNc3ccc(F)c(C(F)(F)F)c3)c(-c3cc(C(F)(F)F)cc(C(F)(F)F)c3)n2)cc1` [Compound 22, 4-[3-[3,5-Bis(trifluoromethyl)phenyl]-4-[[4-fluoro-3-(trifluoromethyl)anilino]methyl]pyrazol-1-yl] benzoic acid], the “times more effective than vancomycin and daptomycin” value with S. aureus strains is recorded as “up to 4 times”. Besides, the MIC in experiment [1] was 1 µg/mL (≈ 1.69 µM); in experiment [2], 1 µg/mL (≈ 1.69 µM); in [3] it was 2 µg/mL (≈ 3.38 µM); in experiment [4], 2 µg/mL (≈ 3.38 µM); in [5], 1 µg/mL (≈ 1.69 µM); in [6] it was 1 µg/mL (≈ 1.69 µM). Also, the MIC in experiment [7] turned out to be 1 µg/mL (≈ 1.69 µM); in experiment [8], 2 µg/mL (≈ 3.38 µM); in [9], 2 µg/mL (≈ 3.38 µM); in experiment [10], 1 µg/mL (≈ 1.69 µM).
`O=C(O)c1ccc(-n2cc(CNc3ccc(Cl)c(Cl)c3)c(-c3cc(C(F)(F)F)cc(C(F)(F)F)c3)n2)cc1` [Compound 19, 4-[3-[3,5-Bis(trifluoromethyl)phenyl]-4-[(3,4-dichloroanilino)methyl]pyrazol-1-yl] benzoic acid]: the “times more effective than vancomycin and daptomycin” value in the experiment with S. aureus strains was “up to 4 times”. In addition, the MIC against Gram-positive bacteria is no less than 0.5 µg/mL; in experiment [1], 0.5 µg/mL (≈ 0.871 µM); in [2], 1 µg/mL (≈ 1.74 µM); in experiment [3] it was 1 µg/mL (≈ 1.74 µM); in experiment [4], 1 µg/mL (≈ 1.74 µM); in experiment [5], 1 µg/mL (≈ 1.74 µM). Further, the minimal inhibitory concentration (MIC) in [6] amounted to 2 µg/mL (≈ 3.48 µM); in experiment [7], 1 µg/mL (≈ 1.74 µM); in experiment [8], 1 µg/mL (≈ 1.74 µM); in [9], 1 µg/mL (≈ 1.74 µM); in [10] it was 0.5 µg/mL (≈ 0.871 µM).
For `O=C(O)c1ccc(-n2cc(CNc3ccccc3)c(-c3cc(C(F)(F)F)cc(C(F)(F)F)c3)n2)cc1` [Compound 1, 4-[4-(Anilinomethyl)-3-[3,5-bis(trifluoromethyl)phenyl]pyrazol-1-yl] benzoic acid], the minimal inhibitory concentration (MIC) in the experiment with Gram-positive bacteria is no less than 2 µg/mL; in experiment [1], 2 µg/mL (≈ 3.96 µM); in [2] it was 4 µg/mL (≈ 7.91 µM); in [3], 8 µg/mL (≈ 15.8 µM); in experiment [4], 4 µg/mL (≈ 7.91 µM); in experiment [5] it was 4 µg/mL (≈ 7.91 µM). The minimal inhibitory concentration (MIC) was determined as 4 µg/mL (≈ 7.91 µM) in experiment [6]; 4 µg/mL (≈ 7.91 µM) in [7]; 2 µg/mL (≈ 3.96 µM) in experiment [8]; 8 µg/mL (≈ 15.8 µM) in experiment [9]; 4 µg/mL (≈ 7.91 µM) in experiment [10].
`O=C(O)c1ccc(-n2cc(CNc3cc(Cl)cc(Cl)c3)c(-c3cc(C(F)(F)F)cc(C(F)(F)F)c3)n2)cc1` [Compound 20, 4-[3-[3,5-Bis(trifluoromethyl)phenyl]-4-[(3,5-dichloroanilino)methyl]pyrazol-1-yl] benzoic acid]: in the experiment on S. aureus strains, the “times more effective than vancomycin and daptomycin” value was “up to 4 times”. Also, the MIC in the experiment with Gram-positive bacteria is no less than 0.5 µg/mL; in [1], 1 µg/mL (≈ 1.74 µM); in [2], 1 µg/mL (≈ 1.74 µM); in experiment [3], 1 µg/mL (≈ 1.74 µM); in [4], 1 µg/mL (≈ 1.74 µM); in experiment [5] it was 1 µg/mL (≈ 1.74 µM). For the same compound, the MIC in experiment [6] amounted to 1 µg/mL (≈ 1.74 µM); in [7], 1 µg/mL (≈ 1.74 µM); in [8], 1 µg/mL (≈ 1.74 µM); in [9], 2 µg/mL (≈ 3.48 µM); in experiment [10] it was 0.5 µg/mL (≈ 0.871 µM).
Take `Cc1ccc(NCc2cn(-c3ccc(C(=O)O)cc3)nc2-c2cc(C(F)(F)F)cc(C(F)(F)F)c2)cc1Cl` [Compound 15, 4-[3-[3,5-Bis(trifluoromethyl)phenyl]-4-[(3-chloro-4-methyl-anilino)methyl]pyrazol-1-yl] benzoic acid]: the minimum inhibitory concentration (MIC) against Gram-positive bacteria was no less than 1 µg/mL; in [1] it was 1 µg/mL (≈ 1.81 µM); in experiment [2], 2 µg/mL (≈ 3.61 µM); in experiment [3] it was 2 µg/mL (≈ 3.61 µM); in experiment [4] it was 2 µg/mL (≈ 3.61 µM); in experiment [5] it was 1 µg/mL (≈ 1.81 µM). Further, the MIC in experiment [6] came out at 2 µg/mL (≈ 3.61 µM); in experiment [7], 2 µg/mL (≈ 3.61 µM); in experiment [8], 1 µg/mL (≈ 1.81 µM); in experiment [9], 2 µg/mL (≈ 3.61 µM); in experiment [10] it was 1 µg/mL (≈ 1.81 µM).
